Source: patent publication US20070149505A1, “Method of Inhibiting Adhesion Formation” (SmithKline Beecham Corporation, priority 2001, published 2007)
Values joined by “and” are separate entries in the source; they are usually repeats but may differ in a detail not shown here. Equal values may be shown once.

Test system: uterine horn adhesions
Assay: rabbit uterine horn model of adhesion formation, oral + local (gel) COMPOUND 1 study
Assay type: in vivo, New Zealand White rabbits
Set-up: key to tenacity of the adhesions score (in parentheses), Right Horn, Bowel / tenacity of the adhesions score (in parentheses), Right Horn, Itself / tenacity of the adhesions score (in parentheses), Left Horn, Itself / tenacity of the adhesions score (in parentheses), Right Horn, Left / tenacity of the adhesions score (in parentheses), Left Horn, Bowel / tenacity of the adhesions score (in parentheses), Left Horn, Right / tenacity of the adhesions score (in parentheses), Right Horn, Bladder / tenacity of the adhesions score (in parentheses), Left Horn, Bladder: 0=No Adhesions; 1=mild, easily dissectable adhesions; 2=moderate adhesions; non-dissectable, does not tear the organ; 3=dense adhesions; non-dissectable, tears organ when removed; key to Overall score: overall adhesion score; 1 = mild, 1.5+ slightly tougher/more extensive
Conditions: for Overall, (group summary): group value ± spread, overall scores analyzed by rank order analysis
Experimental: The compounds of the instant invention are tested in known models of adhesion formation. These test systems include a rabbit sidewall model of adhesion formation as described in Rogers, et al., J. Invest. Surg., 9:388-391 (1996) and Rodgers, et al., […], 69(3):403-408 (1998); a rat model for adhesion formation as described in Harris, et al., Surgery, 117:663-669 (1995); and a rabbit animal model used to examine laparoscopic adhesion prevention. The rabbit uterine horn model may also be used to test the use of the instant vitronectin inhibiting compounds as inhibitors of adhesion formation. The experimental details and results using this model are detailed below.
Animals: New Zealand White rabbits, 2.4-2.7 kg, were purchased and quarantined for at least 2 days prior to use. The rabbits were randomized into appropriate control and treatment groups (see experimental designs below). The rabbits were housed on a 12:12 light:dark cycle with food and water available ad libitum. Each treatment group in all studies contained 8-10 animals.
Adhesion Model: The animals that received COMPOUND 1 or vehicle according to the experimental design (below). The rabbits that received placebo at surgery received two doses of vehicle orally. Rabbits were anesthetized with a mixture of 55 mg/kg ketamine hydrochloride and 5 mg/kg Rompum intramuscularly. Following preparation for sterile surgery, a midline laparotomy was performed. The uterine horns were exteriorized and traumatized by abrasion of the serosal surface with gauze until punctate bleeding developed. Ischemia of both uterine horns was induced by removal of the collateral blood supply. The remaining blood supply to the uterine horns was the ascending branches of the utero-vaginal arterial supply of the myometrium. The midline muscle and skin incision were closed.
After 7 or 14 days, the rabbits were terminated and adhesions were scored on a site and rabbit basis. Specifically, the percentage of the area of the horns adherent to various organs was determined. In addition, the tenacity of the adhesions was scored using the following system:
1=mild, easily dissectable adhesions
3=dense adhesions; non-dissectable, tears organ when removed
An overall score which took into account all of the above data was given to each rabbit. The following scoring system was used:
0.5+ Light, filmy pelvic adhesions involving only one organ, typically only 1 or 2 small adhesions
1.0+ Light, filmy adhesions, not extensive although slightly more extensive than 0.5
1.5+ Adhesions slightly tougher and more extensive than a 1 rating
2.0+ Tougher adhesions, a little more extensive, uterine horns usually have adhesions to both bowel and bladder
2.5+ Same as 2, except the adhesions are usually not filmy at any site and more extensive
3.0+ Tougher adhesions than 2, more extensive, both horns are attached to the bowel and bladder, some movement of the uterus possible
3.5+ Same as 3, but adhesions slightly more extensive and tougher
4.0+ Severe adhesions, both horns attached to the bowel and bladder, unable to move the uterus without tearing the adhesions
The rabbits were scored by two independent observers that were blinded to the prior treatment of the animal. If there was disagreement as to the score to be assigned to an individual animal, the higher score was given.
Statistical Analysis: The tenacity and overall scores were analyzed by rank order analysis and analysis of variance on the ranks. The percentage area of the horns involved to the various organs were compared by Student's t test.
[…] received two loading doses of 60 mg/kg COMPOUND 1 orally prior to surgery. At the end of the procedure, the animals received either nothing (surgical control), or 12 ml of placebo (10% CMC) or one of two doses (1 mg/ml or 0.1 mg/ml) of COMPOUND 1 at the site of surgical injury.
Oral+local study: Two loading doses of COMPOUND 1 (60 mg/kg, po) were administered orally prior to surgery. […]

[1] = 1 mg/ml COMPOUND 1, 1 Week Necropsy Time, group mean ± spread
[2] = 1 mg/ml COMPOUND 1, 1 Week Necropsy Time, individual rabbit
[3] = 1 mg/ml COMPOUND 1, 1 Week Necropsy Time, individual rabbit, dash = site adhesion free
[4] = 1 mg/ml COMPOUND 1, 2 Week Necropsy Time, group mean ± spread
[5] = 1 mg/ml COMPOUND 1, 2 Week Necropsy Time, individual rabbit
[6] = 1 mg/ml COMPOUND 1, 2 Week Necropsy Time, individual rabbit, dash = site adhesion free
[7] = 1 mg/ml COMPOUND 1, listed after Control/Placebo 1 Week
[8] = 1 mg/ml COMPOUND 1, listed after Control/Placebo 2 Weeks

O=C(O)C[C@@H]1Cc2ccc(OCCCNc3ccccn3)cc2CN(CC(F)(F)F)C1=O [COMPOUND 1, (S)-3-oxo-8-[3-(pyridin-2-ylamino)-1-propyloxy]-2-(2,2,2-trifluoroethyl)-2,3,4,5-tetrahydro-1H-2-benzazepine-4-acetic acid]
% Sites Adhesion Free (0.1 mg/ml COMPOUND 1, listed after Control/Placebo 2 Weeks): 38.75%
% Horn Involved, Left Horn, Bladder [1]: 0.0 ± 0.0%
% Horn Involved, Left Horn, Bowel [1]: 18.0 ± 4.2%
% Horn Involved, Left Horn, Itself [1]: 18.0 ± 4.7%
% Horn Involved, Left Horn, Right [1]: 15.0 ± 4.0%
% Horn Involved, Right Horn, Bladder [1]: 3.0 ± 1.5%
% Horn Involved, Right Horn, Bowel [1]: 19.0 ± 3.8%
% Horn Involved, Right Horn, Itself [1]: 10.0 ± 4.2%
% Horn Involved, Right Horn, Left [1]: 15.0 ± 4.0%
Overall, (group summary) (1 mg/ml COMPOUND 1, 1 Week Necropsy Time): 21.3 ± 3.9
Overall score [2]: 1.0 (3×) and 0.5 and 1.5 (5×) and 2.0
tenacity of the adhesions score (in parentheses), Left Horn, Bowel [2]: 1
tenacity of the adhesions score (in parentheses), Left Horn, Itself [2]: 1
tenacity of the adhesions score (in parentheses), Left Horn, Right [2]: 1 (6×) and 2
tenacity of the adhesions score (in parentheses), Right Horn, Bladder [2]: 1
tenacity of the adhesions score (in parentheses), Right Horn, Bowel [2]: 1
tenacity of the adhesions score (in parentheses), Right Horn, Itself [2]: 1
tenacity of the adhesions score (in parentheses), Right Horn, Left [2]: 1 (6×) and 2
% Horn Involved, Left Horn, Bowel [3]: 30% (4×) and 20% (3×)
% Horn Involved, Left Horn, Itself [3]: 20% (2×) and 30% (3×) and 10% and 40%
% Horn Involved, Left Horn, Right [3]: 20% (2×) and 10% (2×) and 30% (3×)
% Horn Involved, Right Horn, Bladder [3]: 10%
% Horn Involved, Right Horn, Bowel [3]: 30% (4×) and 10% and 20% (3×)
% Horn Involved, Right Horn, Itself [3]: 20% (2×) and 10% (2×) and 40%
% Horn Involved, Right Horn, Left [3]: 20% (2×) and 10% (2×) and 30% (3×)
% Horn Involved, Left Horn, Bladder [4]: 4.0 ± 2.7%
% Horn Involved, Left Horn, Bowel [4]: 17.0 ± 5.2%
% Horn Involved, Left Horn, Itself [4]: 18.0 ± 4.2%
% Horn Involved, Left Horn, Right [4]: 5.0 ± 3.4%
% Horn Involved, Right Horn, Bladder [4]: 4.0 ± 2.2%
% Horn Involved, Right Horn, Bowel [4]: 13.0 ± 4.0%
% Horn Involved, Right Horn, Itself [4]: 13.0 ± 5.0%
% Horn Involved, Right Horn, Left [4]: 5.0 ± 3.4%
Overall, (group summary) (1 mg/ml COMPOUND 1, 2 Week Necropsy Time): 21.2 ± 5.5
Overall score [5]: 1.0 (5×) and 2.5 and 1.5 (2×) and 0.5 and 2.0
tenacity of the adhesions score (in parentheses), Left Horn, Bladder [5]: 2 and 1
tenacity of the adhesions score (in parentheses), Left Horn, Bowel [5]: 2 (2×) and 1 (4×)
tenacity of the adhesions score (in parentheses), Left Horn, Itself [5]: 1 (6×) and 2 (2×)
tenacity of the adhesions score (in parentheses), Left Horn, Right [5]: 2 and 1
tenacity of the adhesions score (in parentheses), Right Horn, Bladder [5]: 1
tenacity of the adhesions score (in parentheses), Right Horn, Bowel [5]: 1 (6×) and 2
tenacity of the adhesions score (in parentheses), Right Horn, Itself [5]: 1 (4×) and 2
tenacity of the adhesions score (in parentheses), Right Horn, Left [5]: 2 and 1
% Horn Involved, Left Horn, Bladder [6]: 20%
% Horn Involved, Left Horn, Bowel [6]: 30% (4×) and 10% and 40%
% Horn Involved, Left Horn, Itself [6]: 20% (3×) and 30% (2×) and 10% (2×) and 40%
% Horn Involved, Left Horn, Right [6]: 30% and 20%
% Horn Involved, Right Horn, Bladder [6]: 10% (2×) and 20%
% Horn Involved, Right Horn, Bowel [6]: 10% (4×) and 30% (3×)
% Horn Involved, Right Horn, Itself [6]: 20% and 30% (2×) and 10% and 40%
% Horn Involved, Right Horn, Left [6]: 30% and 20%
# Sites Adhesion Free [7]: 36
% Sites Adhesion Free [7]: 45.0%
# Sites Adhesion Free [8]: 45
% Sites Adhesion Free [8]: 56.25%
